Experimental data published in patent publication US20260242419A1, “A CYCLIC PEPTIDE FOR TRAPPING INTERLEUKIN-1 BETA” (Merck Sharp & Dohme LLC, priority 2023, published 2026).
Starred links: 1 amine or outer side, 2 acyl side, 3 side chain; linkers in the order of their positions; H or OH if unused. Non-standard residues stand in square brackets, D forms with d. Residues, ends and D or L forms follow the SMILES beside them. dPro(4R-(4-pyridylmethyl)) = O=C(O)[C@H]1C[C@@H](Cc2ccncc2)CN1; Trp(βS-Me,4-F) = C[C@@H](c1c[nH]c2cccc(F)c12)[C@H](N)C(=O)O; Bip(4'-CONH2) = NC(=O)c1ccc(-c2ccc(C[C@H](N)C(=O)O)cc2)cc1; Bip(4'-COOH) = N[C@@H](Cc1ccc(-c2ccc(C(=O)O)cc2)cc1)C(=O)O; Ala(1-bicyclo(1.1.1)pentyl) = N[C@@H](CC12CC(C1)C2)C(=O)O; dPro(3S-(4-F-Bn)) = O=C(O)[C@@H]1NCC[C@@H]1Cc1ccc(F)cc1; Trp(4-Cl) = N[C@@H](Cc1c[nH]c2cccc(Cl)c12)C(=O)O; X4 = O=C([C@H]1[C@@H](Cc2ccncc2)CCN1[*:1])[*:2]; Ala(pyrimidin-5-yl) = N[C@@H](Cc1cncnc1)C(=O)O; Phe(4-CONH2) = NC(=O)c1ccc(C[C@H](N)C(=O)O)cc1; Phe(4-COOH) = N[C@@H](Cc1ccc(C(=O)O)cc1)C(=O)O; Pro(cis-4-F) = O=C(O)[C@@H]1C[C@H](F)CN1; Ala(4-THP) = N[C@@H](CC1CCOCC1)C(=O)O; AEF = NCCOc1ccc(C[C@H](N)C(=O)O)cc1; Dap(CONH2) = NC(=O)NC[C@H](N)C(=O)O; hTyr = N[C@@H](CCc1ccc(O)cc1)C(=O)O; cisHyp = O=C(O)[C@@H]1C[C@H](O)CN1; d(αMeD) = C[C@@](N)(CC(=O)O)C(=O)O; h4Pal = N[C@@H](CCc1ccncc1)C(=O)O; hPhe = N[C@@H](CCc1ccccc1)C(=O)O; 4Pal = N[C@@H](Cc1ccncc1)C(=O)O; d(αMeS) = C[C@@](N)(CO)C(=O)O; NMeDab = CN[C@@H](CCN)C(=O)O; Dab = NCC[C@H](N)C(=O)O; Aib = CC(C)(N)C(=O)O

These compounds were tested against T1, IL-1β (Homo sapiens, UniProt P01584) (assay: IL-6 assay in MRC5 cells: inhibition of IL-1β induced IL-6 secretion (AlphaLISA)). Conditions: inhibition of IL-1β induced IL-6 secretion in MRC5 cells; read-out: MRC5 IC50.
T1 construct: purchased BioLegend 579404
T1 sequence (P01584 117-269): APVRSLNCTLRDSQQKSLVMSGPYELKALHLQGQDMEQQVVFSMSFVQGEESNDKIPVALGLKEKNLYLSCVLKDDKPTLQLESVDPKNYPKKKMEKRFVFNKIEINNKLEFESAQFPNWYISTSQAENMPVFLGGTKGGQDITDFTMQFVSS
Assay type: cell-based
How it was run: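 Compound was pre-incubated 1 h at ambient temperature with recombinant human IL-1β at 2λ EC80 before adding human lung fibroblast MRC5 cells (3000/well) in EMEM with 0.025% BSA. After overnight culture at 37 °C, 5% CO2, secreted IL-6 in conditioned medium was measured by AlphaLISA; IC50 from 4-parameter logistic fits.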

Structure (SMILES)	IC50 [nM]
C[C@@H](c1c[nH]c2cccc(F)c12)[C@@H]1NC(=O)[C@@H]2C[C@H](O)CN2C(=O)CNC(=O)[C@H](Cc2ccc(C(=O)O)cc2)NC(=O)[C@H](Cc2ccncc2)NC(=O)[C@H](Cc2ccc(-c3ccc(C(=O)O)cc3)cc2)NC(=O)[C@H]2C[C@@H](Cc3ccncc3)CN2C(=O)CNC(=O)[C@H](CCN)NC(=O)[C@H](CCC(N)=O)NC(=O)[C@H](CC2CCOCC2)NC(=O)C(C)(C)NC(=O)[C@H](Cc2c[nH]c3ccccc23)NC(=O)[C@H](CO)NC(=O)C(C)(C)NC1=O [Example 212] (cyclo([Bip(4'-COOH)][4Pal][Phe(4-COOH)]G[cisHyp][Trp(βS-Me,4-F)][Aib]SW[Aib][Ala(4-THP)]Q[Dab]G[dPro(4R-(4-pyridylmethyl))]))	0.029
C[C@@H](c1c[nH]c2cccc(F)c12)[C@@H]1NC(=O)[C@@H]2C[C@H](O)CN2C(=O)CNC(=O)[C@H](Cc2ccc(C(=O)O)cc2)NC(=O)[C@H](Cc2ccncc2)NC(=O)[C@H](Cc2ccc(-c3ccc(C(=O)O)cc3)cc2)NC(=O)[C@H]2C[C@@H](Cc3ccncc3)CN2C(=O)CNC(=O)[C@H](CCN)NC(=O)[C@H](CCC(N)=O)NC(=O)[C@H](CC2CCOCC2)NC(=O)[C@@](C)(CO)NC(=O)[C@H](Cc2c[nH]c3ccccc23)NC(=O)[C@H](CO)NC(=O)C(C)(C)NC1=O [Example 213] (cyclo([Bip(4'-COOH)][4Pal][Phe(4-COOH)]G[cisHyp][Trp(βS-Me,4-F)][Aib]SW[d(αMeS)][Ala(4-THP)]Q[Dab]G[dPro(4R-(4-pyridylmethyl))]))	0.021
C[C@@H](c1c[nH]c2cccc(F)c12)[C@@H]1NC(=O)[C@@H]2C[C@H](F)CN2C(=O)CNC(=O)[C@H](Cc2ccc(C(=O)O)cc2)NC(=O)[C@H](Cc2ccncc2)NC(=O)[C@H](Cc2ccc(-c3ccc(C(N)=O)cc3)cc2)NC(=O)[C@H]2C[C@@H](Cc3ccncc3)CN2C(=O)CNC(=O)[C@H](CCN)NC(=O)[C@H](CCC(N)=O)NC(=O)[C@H](CC2CCOCC2)NC(=O)[C@@](C)(CO)NC(=O)[C@H](Cc2c[nH]c3ccccc23)NC(=O)[C@H](CO)NC(=O)C(C)(C)NC1=O [Example 215] (cyclo([Bip(4'-CONH2)][4Pal][Phe(4-COOH)]G[Pro(cis-4-F)][Trp(βS-Me,4-F)][Aib]SW[d(αMeS)][Ala(4-THP)]Q[Dab]G[dPro(4R-(4-pyridylmethyl))]))	0.01
C[C@@H](c1c[nH]c2cccc(F)c12)[C@@H]1NC(=O)[C@@H]2C[C@H](F)CN2C(=O)CNC(=O)[C@H](Cc2ccc(C(=O)O)cc2)NC(=O)[C@H](CC23CC(C2)C3)NC(=O)[C@H](Cc2ccc(-c3ccc(C(N)=O)cc3)cc2)NC(=O)[C@H]2[C@@H](Cc3ccc(F)cc3)CCN2C(=O)CNC(=O)[C@H](CCN)NC(=O)[C@H](CCC(N)=O)NC(=O)[C@H](CC2CCOCC2)NC(=O)[C@@](C)(CO)NC(=O)[C@H](Cc2c[nH]c3ccccc23)NC(=O)[C@H](CO)NC(=O)C(C)(C)NC1=O [Example 216] (cyclo([Bip(4'-CONH2)][Ala(1-bicyclo(1.1.1)pentyl)][Phe(4-COOH)]G[Pro(cis-4-F)][Trp(βS-Me,4-F)][Aib]SW[d(αMeS)][Ala(4-THP)]Q[Dab]G[dPro(3S-(4-F-Bn))]))	0.008
CC(=O)NCCOc1ccc(C[C@@H]2NC(=O)[C@H]3C[C@@H](Cc4ccncc4)CN3C(=O)CNC(=O)[C@H](CCN)N(C)C(=O)[C@H](CCC(N)=O)NC(=O)[C@H](Cc3cncnc3)NC(=O)C(C)(C)NC(=O)[C@H](Cc3c[nH]c4ccccc34)NC(=O)[C@H](CO)NC(=O)C(C)(C)NC(=O)[C@H]([C@@H](C)c3c[nH]c4cccc(F)c34)NC(=O)[C@@H]3C[C@H](F)CN3C(=O)CNC(=O)[C@H](Cc3ccc(C(N)=O)cc3)NC(=O)[C@H](Cc3ccncc3)NC2=O)cc1 [Example 218] (cyclo([4Pal][Phe(4-CONH2)]G[Pro(cis-4-F)][Trp(βS-Me,4-F)][Aib]SW[Aib][Ala(pyrimidin-5-yl)]Q[NMeDab]G[dPro(4R-(4-pyridylmethyl))][AEF](Ac)))	0.036
C[C@@H](c1c[nH]c2cccc(F)c12)[C@@H]1NC(=O)[C@@H]2C[C@H](F)CN2C(=O)CNC(=O)[C@H](Cc2ccc(C(=O)O)cc2)NC(=O)[C@H](Cc2ccncc2)NC(=O)[C@H](Cc2ccc(-c3ccc(C(=O)O)cc3)cc2)NC(=O)[C@H]2[C@@H](Cc3ccncc3)CCN2C(=O)CNC(=O)[C@H](CCN)NC(=O)[C@H](CCC(N)=O)NC(=O)[C@H](CCc2ccc(O)cc2)NC(=O)[C@@](C)(CC(=O)O)NC(=O)[C@H](Cc2c[nH]c3ccccc23)NC(=O)[C@H](CO)NC(=O)C(C)(C)NC1=O [Example 219] (cyclo([Bip(4'-COOH)][4Pal][Phe(4-COOH)]G[Pro(cis-4-F)][Trp(βS-Me,4-F)][Aib]SW[d(αMeD)][hTyr]Q[Dab]G[X4]))	0.018
C[C@@H](c1c[nH]c2cccc(F)c12)[C@@H]1NC(=O)[C@@H]2C[C@H](F)CN2C(=O)CNC(=O)[C@H](Cc2ccc(C(=O)O)cc2)NC(=O)[C@H](Cc2ccncc2)NC(=O)[C@H](Cc2ccc(-c3ccc(C(=O)O)cc3)cc2)NC(=O)[C@H]2[C@@H](Cc3ccncc3)CCN2C(=O)CNC(=O)[C@H](CCN)NC(=O)[C@H](CCC(N)=O)NC(=O)[C@H](CCc2ccc(O)cc2)NC(=O)C(C)(C)NC(=O)[C@H](Cc2c[nH]c3ccccc23)NC(=O)[C@H](CO)NC(=O)C(C)(C)NC1=O [Example 220] (cyclo([Bip(4'-COOH)][4Pal][Phe(4-COOH)]G[Pro(cis-4-F)][Trp(βS-Me,4-F)][Aib]SW[Aib][hTyr]Q[Dab]G[X4]))	0.039
C[C@@H](c1c[nH]c2cccc(F)c12)[C@@H]1NC(=O)[C@@H]2C[C@H](F)CN2C(=O)CNC(=O)[C@H](Cc2ccc(C(=O)O)cc2)NC(=O)[C@H](Cc2ccncc2)NC(=O)[C@H](Cc2ccc(-c3ccc(C(=O)O)cc3)cc2)NC(=O)[C@H]2[C@@H](Cc3ccncc3)CCN2C(=O)CNC(=O)[C@H](CCN)NC(=O)[C@H](CCC(N)=O)NC(=O)[C@H](CCc2ccccc2)NC(=O)[C@@](C)(CC(=O)O)NC(=O)[C@H](Cc2c[nH]c3ccccc23)NC(=O)[C@H](CO)NC(=O)C(C)(C)NC1=O [Example 221] (cyclo([Bip(4'-COOH)][4Pal][Phe(4-COOH)]G[Pro(cis-4-F)][Trp(βS-Me,4-F)][Aib]SW[d(αMeD)][hPhe]Q[Dab]G[X4]))	0.02
C[C@@H](c1c[nH]c2cccc(F)c12)[C@@H]1NC(=O)[C@@H]2C[C@H](F)CN2C(=O)CNC(=O)[C@H](Cc2ccc(C(=O)O)cc2)NC(=O)[C@H](Cc2ccncc2)NC(=O)[C@H](Cc2ccc(-c3ccc(C(=O)O)cc3)cc2)NC(=O)[C@H]2[C@@H](Cc3ccncc3)CCN2C(=O)CNC(=O)[C@H](CCN)NC(=O)[C@H](CCC(N)=O)NC(=O)[C@H](CCc2ccncc2)NC(=O)[C@@](C)(CC(=O)O)NC(=O)[C@H](Cc2c[nH]c3ccccc23)NC(=O)[C@H](CO)NC(=O)C(C)(C)NC1=O [Example 222] (cyclo([Bip(4'-COOH)][4Pal][Phe(4-COOH)]G[Pro(cis-4-F)][Trp(βS-Me,4-F)][Aib]SW[d(αMeD)][h4Pal]Q[Dab]G[X4]))	0.02
C[C@@H](c1c[nH]c2cccc(F)c12)[C@@H]1NC(=O)[C@@H]2C[C@H](F)CN2C(=O)CNC(=O)[C@H](Cc2ccc(C(=O)O)cc2)NC(=O)[C@H](Cc2ccncc2)NC(=O)[C@H](Cc2ccc(-c3ccc(C(=O)O)cc3)cc2)NC(=O)[C@H]2[C@@H](Cc3ccncc3)CCN2C(=O)CNC(=O)[C@H](CNC(N)=O)NC(=O)[C@H](CCC(N)=O)NC(=O)[C@H](CCc2ccncc2)NC(=O)[C@@](C)(CC(=O)O)NC(=O)[C@H](Cc2c[nH]c3ccccc23)NC(=O)[C@H](CO)NC(=O)C(C)(C)NC1=O [Example 223] (cyclo([Bip(4'-COOH)][4Pal][Phe(4-COOH)]G[Pro(cis-4-F)][Trp(βS-Me,4-F)][Aib]SW[d(αMeD)][h4Pal]Q[Dap(CONH2)]G[X4]))	0.027
COC[C@@]1(C)NC(=O)[C@H](Cc2c[nH]c3ccccc23)NC(=O)[C@H](CO)NC(=O)C(C)(C)NC(=O)[C@H]([C@@H](C)c2c[nH]c3cccc(F)c23)NC(=O)[C@@H]2C[C@H](F)CN2C(=O)CNC(=O)[C@H](Cc2ccc(C(=O)O)cc2)NC(=O)[C@H](Cc2ccncc2)NC(=O)[C@H](Cc2ccc(-c3ccc(C(=O)O)cc3)cc2)NC(=O)[C@H]2[C@@H](Cc3ccncc3)CCN2C(=O)CNC(=O)[C@H](CCN)NC(=O)[C@H](CCC(N)=O)NC(=O)[C@H](Cc2cncnc2)NC1=O [Example 224] (cyclo([Bip(4'-COOH)][4Pal][Phe(4-COOH)]G[Pro(cis-4-F)][Trp(βS-Me,4-F)][Aib]SW[d(αMeS)](Me)[Ala(pyrimidin-5-yl)]Q[Dab]G[X4]))	0.03
C[C@@H](c1c[nH]c2cccc(F)c12)[C@@H]1NC(=O)[C@@H]2C[C@H](F)CN2C(=O)CNC(=O)[C@H](Cc2ccc(C(=O)O)cc2)NC(=O)[C@H](Cc2ccncc2)NC(=O)[C@H](Cc2ccc(-c3ccc(C(=O)O)cc3)cc2)NC(=O)[C@H]2[C@@H](Cc3ccncc3)CCN2C(=O)CNC(=O)[C@H](CCN)NC(=O)[C@H](CCC(N)=O)NC(=O)[C@H](Cc2cncnc2)NC(=O)[C@@](C)(CC(=O)O)NC(=O)[C@H](Cc2c[nH]c3cccc(Cl)c23)NC(=O)[C@H](CO)NC(=O)C(C)(C)NC1=O [Example 225] (cyclo([Bip(4'-COOH)][4Pal][Phe(4-COOH)]G[Pro(cis-4-F)][Trp(βS-Me,4-F)][Aib]S[Trp(4-Cl)][d(αMeD)][Ala(pyrimidin-5-yl)]Q[Dab]G[X4]))	0.019
C[C@@H](c1c[nH]c2cccc(F)c12)[C@@H]1NC(=O)[C@@H]2C[C@H](F)CN2C(=O)CNC(=O)[C@H](Cc2ccc(C(=O)O)cc2)NC(=O)[C@H](Cc2ccncc2)NC(=O)[C@H](Cc2ccc(-c3ccc(C(=O)O)cc3)cc2)NC(=O)[C@H]2[C@@H](Cc3ccncc3)CCN2C(=O)CNC(=O)[C@H](CNC(N)=O)NC(=O)[C@H](CCC(N)=O)NC(=O)[C@H](Cc2cncnc2)NC(=O)[C@@](C)(CC(=O)O)NC(=O)[C@H](Cc2c[nH]c3cccc(Cl)c23)NC(=O)[C@H](CO)NC(=O)C(C)(C)NC1=O [Example 226] (cyclo([Bip(4'-COOH)][4Pal][Phe(4-COOH)]G[Pro(cis-4-F)][Trp(βS-Me,4-F)][Aib]S[Trp(4-Cl)][d(αMeD)][Ala(pyrimidin-5-yl)]Q[Dap(CONH2)]G[X4]))	0.022
